# Measurements from US9308282B2, “[F-18]-labelled L-glutamic acid and L-glutamine derivatives (I), their use and processes for their preparation” (PIRAMAL IMAGING SA, priority 2008, dated 2016).
# Experiments:
# [1] = test system: A549 and H460 tumour cells; assay: cell uptake of S-configured, F-18-labelled glutamic acid derivatives
# Description: Following labelling with F-18, (2S,4S)-2-amino-4-(3-[F-18]fluoropropyl)pentanedioic acid was examined in cell experiments with A549 and H460 tumour cells (both human non-small-cell bronchial carcinoma cell lines).
# [2] = test system: A549 tumour; assay: PET/CT imaging in mice bearing A549 tumours; assay type: in vivo; settings: 60 min after i.v. 10 MBq, 20 min data acquisition
# [3] = test system: H460 tumour; assay: PET with rats bearing H460 tumours; assay type: in vivo; settings: 80 min after i.v. 18 MBq, 20 min data acquisition
compound,measurement,setting,value
N[C@@H](C[C@H](CCC[18F])C(=O)O)C(=O)O,cellular uptake over time,[1],time-dependent cellular uptake
same,PET/CT image analysis: uptake into the A549 tumour,[2],high uptake
same,PET image analysis: uptake into the H460 tumour,[3],high uptake
